These results are taken from patent US5859004A, “Use of heterocyclic compounds for the treatment of conditions caused by malfunctioning of the nicotinic cholinergic system” (Novo Nordisk A/S, priority 1995, dated 1999).

Read-outs that look alike come from different tables or passages of the source.

The target in series [1] is T1, nicotinic acetylcholine receptors (rat cortical receptors) (Rattus norvegicus, UniProt P09483+P12390).
T1 construct: Fresh or frozen rat, brain tissue (hippocampus or cortex) was homogenized; from tissue; host or cells: rat brain tissue (hippocampus or cortex)
Briefly: Inhibition of specific binding of ^3 H-methylcarbamylcholine (^3 H-MCC). To be noted: for Ratio Oxo/MCC: IC50 ^3 H-Oxo / IC50 ^3 H-MCC, selectivity nicotinic over muscarinic; for IC50: rat cortical receptors, ^3 H-MCC 2 nM, 0° C., 60 min. The text has this:
The pharmacological properties of the compounds of the invention can be illustrated by determining their capability to inhibit the specific binding of ^3 H-methylcarbamylcholine (^3 H-MCC) (Abood and Grassi, Biochem. Pharmacol., Vol. 35, pp. 4199--4202, (1986)).
^3 H-MCC labels the nicotinic receptors in the CNS. The inhibitory effect on ^3 H-MMC binding reflects the affinity for nicotinic acetylcholine receptors.
Fresh or frozen rat, brain tissue (hippocampus or cortex) was homogenized in assay buffer (50 mM Tris-HCl, pH 7.4, 120 mM NaCl, 5 mM KCl, 2 mM CaCl2, 1 mM MgCl2) and centrifuged for 10 min. at 40.000×g. Pellets were subsequently reconstituted in assay buffer and an appropriate amount of tissue sample was mixed in tubes with ^3 H-methylcarbamylcholine (NEN, NET-951; final concentration 2 nM) and test drug. The tubes were incubated at 0° C. for 60 min. Unbound ligand was separated from bound ligand by vacuum filtration through GF/B filters presoaked in 0.5% polyethylenimine. Filters were washed three times with 5 ml wash buffer (50 mM Tris-HCl, pH 7.4) and transferred to vials. 4 ml scintillation fluid was added and the radioactivity was measured by scintillation counting. Unspecific binding was measured with 10 μM nicotine.
The IC50 values of the test compounds were determined by nonlinear regression analyses (GraphPad InPlot).
Table I illustrates the affinity of the compounds of the present invention for nicotinic and muscarinic receptors as determined by ^3 H-MCC and ^3 H-Oxo binding to rat cortical receptors. The compounds, however, show selective affinity for nicotinic receptors as compared to muscarinic receptors, i.e OXO/MCC>1.

For series [2], the target named is muscarinic acetylcholine receptors (rat cortical receptors). Kind of series: Inhibition of specific binding of ^3 H-Oxotremorine-M (^3 H-Oxo). The note with it: rat cortex; ^3 H-Oxotremorine 1.0 nM, 25° C., 30 min. An excerpt: Furthermore, the pharmacological properties of the compounds of the invention can also be illustrated by determining their capability to inhibit the specific binding of ^3 H-Oxotremorine-M (^3 H-Oxo). Birdsdall N. J. M., Hulme E. C., and Burgen A. S. V. (1980). "The Character of Muscarinic Receptors in Different Regions of the Rat Brain". Proc. Roy. Soc. London (Series B) 207,1.
^3 H-Oxo labels muscarinic receptor in the CNS (with a preference for agonist domains of the receptors). Three different sites are labelled by ^3 H-Oxo. […] Using the present experimental conditions only the high and medium affinity sites are determined.
The inhibitory effects of compounds on ^3 H-Oxo binding reflects the affinity for muscarinic acetylcholine receptors.
All preparations are performed at 0°-4° C. unless otherwise indicated. Fresh cortex (0.1-1 g) from male Wistar rats (150-250 g) is homogenized for 5-10 s in 10 ml 20 mM Hepes pH: 7.4, with an Ultra-Turrax homogenizer. The homogenizer is rinsed with 10 ml of buffer and the combined suspension centrifuged for 15 min. at 40,000×g. The pellet is washed three times with buffer. In each step the pellet is homogenized as before in 2×10 ml of buffer and centrifuged for 10 min. at 40,000×g.
The final pellet is homogenized in 20 mM Hepes pH: 7.4 (100 ml per g of original tissue) and used for binding assay. Aliquots of 0.5 ml is added 25 μl of test solution and 25 μl of ^3 H-Oxotremorine (1.0 nM, final concentration) mixed and incubated for 30 min. at 25° C. Non-specific binding is determined in triplicate using arecoline (1 μg/ml, final concentration) as the test substance. After incubation samples are added 5 ml of ice-cold buffer and poured directly onto Whatman GF/C glass fiber filters under suction and immediately washed 2 times with 5 ml of ice-cold buffer. The amount of radioactivity on the filters are determined by conventional liquid scintillation counting. Specific binding is total binding minus non specific binding.
Test substances are dissolved in 10 ml water (if necessary heated on a steam-bath for less than 5 min.) at a concentration of 2.2 mg/ml. 25-75% inhibition of specific binding must be obtained before calculation of IC50. The test value will be given as IC50 (the concentration (nM) of the test substance which inhibits the specific binding of ^3 H-Oxo by 50%).
IC50 =(applied test substance concentration)×(Cx /Co
where Co is specific binding in control assays and Cx is the specific binding in the test assay. (The calculations assume normal mass-action kinetics).
Table I illustrates the affinity of the compounds of the present invention for nicotinic and muscarinic receptors as determined by ^3 H-MCC and ^3 H-Oxo binding to rat cortical receptors. […]

Series [3] shares this target. The note with it: read-out: affinity of site labelled by ^3 H-Oxo, cited from earlier work.
For series [4], the system named is nicotinic. To be noted: age related; cited from earlier work.
Series [5] has as its system substantia nigra. The note with it: chronic nicotine; lesioning; cited from earlier work.
Series [6] deals with Tourette's syndrome. To be noted: in vivo; cited from earlier work.
Series [7] concerns dopamine release. The note with it: nucleus accumbens versus striatum; cited from earlier work.
The test system of series [8] is Alzheimer's disease patients. The note with it: cited from earlier work.
In series [9] the test system is healthy humans. To be noted: cited from earlier work.
Series [10] relates to dopaminergic effects. To be noted: various behavioral models; cited from earlier work.

T1 sequence (P09483 31-630): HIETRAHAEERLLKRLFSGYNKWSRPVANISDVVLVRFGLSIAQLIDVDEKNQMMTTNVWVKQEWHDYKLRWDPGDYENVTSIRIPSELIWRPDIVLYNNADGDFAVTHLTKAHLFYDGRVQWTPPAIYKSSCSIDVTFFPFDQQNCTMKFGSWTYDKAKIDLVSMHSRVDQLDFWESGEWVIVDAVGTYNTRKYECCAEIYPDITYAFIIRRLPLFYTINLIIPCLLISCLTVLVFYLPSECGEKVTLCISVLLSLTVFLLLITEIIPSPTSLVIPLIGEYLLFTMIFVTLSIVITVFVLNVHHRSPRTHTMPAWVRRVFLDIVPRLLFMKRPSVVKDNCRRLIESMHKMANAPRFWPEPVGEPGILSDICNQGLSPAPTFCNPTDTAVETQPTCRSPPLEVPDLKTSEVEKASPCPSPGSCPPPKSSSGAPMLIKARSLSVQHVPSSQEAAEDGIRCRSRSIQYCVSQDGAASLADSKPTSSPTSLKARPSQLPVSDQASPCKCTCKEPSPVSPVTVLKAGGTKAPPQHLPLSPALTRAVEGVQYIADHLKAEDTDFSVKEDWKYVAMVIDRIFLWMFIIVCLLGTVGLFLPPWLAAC
T1 sequence (P12390 25-500): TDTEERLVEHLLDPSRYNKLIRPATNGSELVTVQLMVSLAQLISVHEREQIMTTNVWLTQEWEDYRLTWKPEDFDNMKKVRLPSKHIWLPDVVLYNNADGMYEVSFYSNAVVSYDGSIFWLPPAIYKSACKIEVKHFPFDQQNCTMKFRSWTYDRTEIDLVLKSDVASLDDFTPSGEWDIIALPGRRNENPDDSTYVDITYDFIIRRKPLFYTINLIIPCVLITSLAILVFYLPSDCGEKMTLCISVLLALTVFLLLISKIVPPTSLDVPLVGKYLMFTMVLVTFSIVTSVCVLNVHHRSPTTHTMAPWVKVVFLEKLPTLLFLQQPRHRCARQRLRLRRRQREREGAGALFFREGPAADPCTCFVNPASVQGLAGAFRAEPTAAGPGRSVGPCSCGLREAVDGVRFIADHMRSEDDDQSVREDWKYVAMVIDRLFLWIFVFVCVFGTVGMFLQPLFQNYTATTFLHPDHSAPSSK

For the molecule `Cc1cc(/C=C2\CN3CCCC2C3)on1.O=C(O)C(=O)O` (stereo not shown) [Compound 3, (Z)-6-(3-methyl-5-isoxazolyl)methylene-1-azabicyclo[3.2.1]octane oxalate], in series [1], the “Ratio Oxo/MCC” value is reported as 5.9 and the IC50 (usually the concentration that gives 50% inhibition) came to 161 nM. Moreover, the IC50 in [2] is 953 nM.

On to `Cc1cc(/C=C2/CN3CCCC2C3)on1.O=C(O)C(=O)O` (stereo not shown) [Compound 4, (E)-6-(3-methyl-5-isoxazolyl)methylene-1-azabicyclo[3.2.1]octane oxalate], for which, in series [1], the “Ratio Oxo/MCC” value is given as 22.1 and the IC50 turned out to be 81 nM. Moreover, the IC50 in series [2] is 1780 nM.

`Cc1cc(/C=C2\CN3CCC2C3)on1.O=C(O)C(=O)O` (stereo not shown) [Compound 5, (Z)-3-(3-methyl-5-isoxazolyl)methylene-1-azabicyclo[2.2.1]heptane oxalate]: in [1], the “Ratio Oxo/MCC” value was determined as 17.2 and the IC50 was determined as 25 nM. Moreover, the IC50 in series [2] came out at 430 nM.

Regarding `Cc1cc(/C=C2/CN3CCC2C3)on1.O=C(O)C(=O)O` (stereo not shown) [Compound 6, (E)-3-(3-methyl-5-isoxazolyl)methylene-1-azabicyclo[2.2.1]heptane oxalate], the “Ratio Oxo/MCC” value in series [1] is listed as 55.0. Besides, the IC50 was 20 nM in series [1] and 1100 nM in [2].

Turning to `C[N+](C)(C)CC#CCN1CCCC1=O` [^3 H-Oxo, ^3 H-Oxotremorine-M], the Kd in series [3] (high affinity site) is 1.8 nM; in [3] (medium affinity site) it was 20 nM; in series [3] (third (lowest affinity) site, not determined under the present conditions), 3000 nM.

As to `CNC1(C)C2CCC(C2)C1(C)C` (stereo not shown) [mecamylamine], in series [4], the cognitive impairment result is “cause cognitive impairment in an age related way”.

For `CN1CCCC1c1cccnc1` (stereo not shown) [nicotine], the “protection against cell loss in the substantia nigra” value in [5] is recorded as “may protect against cell loss in the substantia nigra caused by lesioning”. Further, the “effects in Tourette's syndrome” value in [6] was “beneficial effects in Tourette's syndrome”. Besides, the dopamine release entry in [7] is “stimulates dopamine release in the nucleus accumbens more potently than in striatum”. Also, the attention and memory result is “improved attention and memory” in series [8]; “improved attention and memory” in series [9]. The “potentiation of dopaminergic effects” value in [10] was “will potentiate dopaminergic effects in various behavioral models”.
